Data: patent US12617812B2, “Platinum(IV) complexes, methods of manufacture, compositions containing, and methods of use thereof” (City University of Hong Kong, priority 2021, dated 2026)

Experiments:
[1] = tested on: Human lung fibroblast MRC-5 cells; experiment: MTT cytotoxicity test, MRC-5 cells; type: cell-based; conditions: in the dark with no irradiation, 6 h treatment
Method: (§1) Human lung carcinoma A549 cells (American Type Culture Collection, ATCC), and cisplatin-resistant A549cisR cells (American Type Culture Collection, ATCC) are cultured in DMEM with 10% FBS and 100 µg/mL penicillin/streptomycin. Human ovarian carcinoma A2780 and cisplatin-resistant A2780cisR cells are cultured in RPMI-1640 with 10% FBS, 1% L-Glutamine, and 100 µg/mL penicillin/streptomycin. Human lung fibroblast MRC-5 cells (American Type Culture Collection, ATCC) are cultured in MEM with 10% FBS, 1% NEAA, 1% L-Glutamine, 1% sodium pyruvate, and 100 µg/mL penicillin/streptomycin. For A2780cisR and A549cisR cells, 2 μM of cisplatin is added into the culture medium after the attachment to maintain the resistance. All the cells are cultured at 37° C. in 5% CO2.
(§2) The cytotoxic profiles of the various complexes against selected cell lines are obtained by a 3-(4,5-Dimethylthiazol-2-yl)-2,5-diphenyltetrazolium bromide (MTT) assay. Cells are seeded into 96-well plates at a density of 2,500 cells per well (for A549, and A2780) or 5,000 cells per well (for A549cisR, A2780cisR, and MRC-5) and incubated for 24 h. Cells are then treated with medium containing various concentrations of complexes for 6 h. The medium is replaced by phenol-red free medium. Then cells are irradiated with near-infrared radiation (880 nm, 0.4 W/cm^2) for 80 min. After irradiation, cells are further incubated in fresh medium for 18 h at 37° C. Then, the culture medium is removed, cells are then incubated with FBS free medium containing 1 mg/mL MTT for 2 h. Medium containing MTT is removed and 150 μL DMSO is added to each well. The absorbance is measured at 570 and 630 nm.
Cells are treated with the indicated complex for 6 h, the culture medium is replaced with fresh medium and irradiated with or without blue light for 1 h. Then cells are cultured for another 42 h.

[2] = tested on: Human ovarian carcinoma A2780 cells; experiment: MTT cytotoxicity test, A2780 cells; type: cell-based; conditions: 6 h treatment
Method: as §1
as §2, with “nm. […]” for “nm.”

[3] = tested on: cisplatin-resistant A2780cisR cells; experiment: MTT cytotoxicity test, A2780cisR cells; type: cell-based, Human; conditions: 6 h treatment
Method: as §1
as §2, with “nm. […]” for “nm.”

[4] = tested on: cisplatin-resistant A549cisR cells; experiment: MTT cytotoxicity test, A549cisR cells; type: cell-based, Human; conditions: 6 h treatment
Method: as §1
as §2, with “nm. […]” for “nm.”

[5] = tested on: Human lung carcinoma A549 cells; experiment: MTT cytotoxicity test, A549 cells; type: cell-based; conditions: 6 h treatment
Method: as §1
as §2, with “nm. […]” for “nm.”

[6] = in the dark with no irradiation
[7] = mark * (dark), position of the irradiated row
[8] = A2780cisR*, in the dark with no irradiation
[9] = A549cisR*, in the dark with no irradiation
[10] = A549*, in the dark with no irradiation

Structure (SMILES) | IC50 [1] [µM] | IC50 [2, 6] [µM] | IC50 [2, 7] [µM] | IC50 ([3]; A2780cisR**, with irradiation) [µM] | IC50 [3, 8] [µM] | IC50 ([4]; A549cisR**, with irradiation) [µM] | IC50 [4, 9] [µM] | IC50 ([5]; A549**, with irradiation) [µM] | IC50 [5, 10] [µM]
N.N.O=C([O-])C1(C(=O)[O-])CCC1.[Pt+2] [Carboplatin, reference compound] | 690 ± 38.5 | 303 ± 34.8 | 336 ± 43.8 | 630 ± 43.2 | 668 ± 51.1 | > 700 | > 700 | 435 ± 42.9 | 418 ± 33.6
O=C1[O][Pt]2([NH][C@@H]3CCCC[C@H]3[NH]2)[O]C1=O [Oxaliplatin, reference compound] | 213 ± 16.4 | 86.5 ± 7.7 | 73.7 ± 5.9 | 254 ± 18.2 | 250 ± 12.6 | 269 ± 16.3 | 258 ± 11.6 | 104 ± 8.2 | 97.2 ± 7.5
CCN(CC)c1ccc2cc(C(=O)/C=C/c3ccc(N(C)CCC(=O)[O][Pt]4([NH2])([NH2])([OH])[O]C(=O)C5(CCC5)C(=O)[O]4)cc3)c(=O)oc2c1 [Complex 4] | > 50 | > 50 | 10.7 ± 2.2 | 11.2 ± 2.8 | > 50 | 18.9 ± 4.3 | > 50 | 17.7 ± 5.1 | > 50
CCN(CC)c1ccc2cc(C(=O)/C=C/c3ccc(N(C)CCC(=O)[O][Pt]4([NH2])([NH2])([O]C(=O)Cc5cccc6c(=O)c7ccc(C)c(C)c7oc56)[O]C(=O)C5(CCC5)C(=O)[O]4)cc3)c(=O)oc2c1 [Complex 6] | > 50 | > 50 | 11.4 ± 1.5 | 12.7 ± 1.9 | > 50 | 12.6 ± 2.1 | > 50 | 11.6 ± 1.2 | > 50
